Source: patent publication US11667602B2, “Compounds and their use” (AstraZeneca AB, priority 2020, dated 2023)

Target: T1, human RXFP1 (Homo sapiens, UniProt Q9HBX9)
T1 sequence (Q9HBX9 1-757): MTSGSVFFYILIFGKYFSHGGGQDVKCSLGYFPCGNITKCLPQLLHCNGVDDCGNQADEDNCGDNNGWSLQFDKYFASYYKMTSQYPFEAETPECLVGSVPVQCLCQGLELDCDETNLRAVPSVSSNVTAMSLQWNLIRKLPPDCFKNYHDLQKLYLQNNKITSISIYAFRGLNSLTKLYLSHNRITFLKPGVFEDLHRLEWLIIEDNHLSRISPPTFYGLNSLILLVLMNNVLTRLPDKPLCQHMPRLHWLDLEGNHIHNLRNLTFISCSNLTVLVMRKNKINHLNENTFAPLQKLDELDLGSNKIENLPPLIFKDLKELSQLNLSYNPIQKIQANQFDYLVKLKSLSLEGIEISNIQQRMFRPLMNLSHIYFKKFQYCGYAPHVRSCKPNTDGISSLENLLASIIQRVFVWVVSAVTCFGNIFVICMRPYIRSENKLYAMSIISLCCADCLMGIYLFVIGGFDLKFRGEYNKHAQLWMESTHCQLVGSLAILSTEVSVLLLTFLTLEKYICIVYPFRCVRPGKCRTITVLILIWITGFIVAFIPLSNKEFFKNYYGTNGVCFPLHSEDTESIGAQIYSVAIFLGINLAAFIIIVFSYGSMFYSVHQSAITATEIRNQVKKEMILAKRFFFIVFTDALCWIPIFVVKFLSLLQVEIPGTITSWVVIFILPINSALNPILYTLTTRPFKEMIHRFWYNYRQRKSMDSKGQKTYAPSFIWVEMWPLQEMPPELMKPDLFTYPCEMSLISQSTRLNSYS
Assay: RXFP1 Hu cAMP (Test A)
Format: cell-based
Design: expressed in transfected cells; host or cells: Jump-In T-REx CHO-K1 cells (ThermoFisher), induced with 10 ng/ml doxycycline for 24 h
Conditions: RXFP1 Hu cAMP; for EC50: read-out: Test A EC50
Outline: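 Cells: CHO-K1 stably carrying human RXFP1, expressed after 24 h 10 ng/ml doxycycline; 0.5 mM IBMX final, HTRF detection after 2 h at room temperature.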

Question: Which results are given for `CC1(CNC(=O)C2C3CCC(CC3)C2NC(=O)c2cc(O[C@H]3CC[C@@](C)(C(=O)O)CC3)c(C#N)cc2F)CCC1` (single isomer, unassigned) [Example 588, (1R,4s)-4-(2-Cyano-4-fluoro-5-(((2S*,3R*)-3-(((1-methylcyclobutyl)methyl)carbamoyl)bicyclo[2.2.2]octan-2-yl)carbamoyl)phenoxy)-1-methylcyclohexane-1-carboxylic acid]?
Answer: Test A Sinf: 95%; EC50: 0.0076 µM

Question: For `COc1ccc(Oc2ccccc2C(=O)O)cc1C(=O)N[C@H]1[C@@H](C(=O)Nc2cccc(S(=O)(=O)C(F)(F)F)c2)[C@@H]2C=C[C@H]1C2` (racemic) [Example 429], which EC50 is on record?
Answer: > 40 µM

Question: Which EC50 does the source give for `COc1ccc(CCC(=O)O)cc1C(=O)N[C@H]1[C@@H](C(=O)Nc2cccc(S(=O)(=O)C(F)(F)F)c2)[C@@H]2C=C[C@H]1C2` (racemic) [Example 218, rac-3-(4-Methoxy-3-(((1R,2R,3S,4S)-3-((3-((trifluoromethyl)sulfonyl)phenyl)carbamoyl)bicyclo[2.2.1]hept-5-en-2-yl)carbamoyl)phenyl)propanoic acid] here?
Answer: > 40 µM

Question: With `COc1cc(F)c(O[C@H]2CC[C@@](C)(C(=O)O)CC2)cc1C(=O)N[C@@H]1[C@H]2OCO[C@H]2C[C@@H]1C(=O)Nc1cccc(S(=O)(=O)C(F)(F)F)c1` (racemic) [Example 395, (1R,4s)-4-(2-Fluoro-4-methoxy-5-(((3aRS,4SR,5SR,6aSR)-5-((3-((trifluoromethyl)sulfonyl)phenyl)carbamoyl)tetrahydro-4H-cyclopenta[d][1,3]dioxol-4-yl)carbamoyl)phenoxy)-1-methylcyclohexane-1-carboxylic acid] as the molecule, how does the “Test A Sinf” value read?
Answer: 101%

Question: What about the EC50 of the same molecule?
Answer: 0.031 µM

Question: For `COc1cc(C#N)c(O[C@H]2CC[C@@](C)(C(=O)O)CC2)cc1C(=O)Nc1cc(Cl)ccc1C(=O)N[C@H](C)C(C)(C)F` [Example 162], which “Test A Sinf” value is on record?
Answer: 107%

Question: And the EC50?
Answer: 0.069 µM

Question: Which “Test A Sinf” value does the source give for `COc1cc(F)c(O[C@H]2CC[C@@](C)(C(=O)O)CC2)cc1C(=O)N[C@@H]1[C@H]2CC[C@H](C2)[C@@H]1C(=O)NCCC(F)(F)F` [Example 596] here?
Answer: 105%

Question: How did the “Test A Sinf” value turn out when `COc1cc(C#N)c(O[C@H]2CC[C@@](C)(C(=O)O)CC2)cc1C(=O)Nc1cc(C)ccc1C(=O)N[C@H](C)C(C)C` [Example 170] was run?
Answer: 136%

Question: What about the EC50 of the same molecule?
Answer: 0.19 µM

Question: How did the “Test A Sinf” value turn out when `COc1cc(C#N)c(O[C@H]2CC[C@@](C)(C(=O)O)CC2)cc1C(=O)N[C@@H]1[C@H]2CC[C@H](C2)[C@@H]1C(=O)NCc1cccc(C)c1` [Example 115] was run?
Answer: 94%

Question: And the EC50?
Answer: 0.22 µM

Question: `COc1cc(F)c(OC2CCC(C)(C(=O)O)CC2)cc1C(=O)NC1COCC1C(=O)Nc1ccc(F)c(S(F)(F)(F)(F)F)c1` [Example 564, (1R,4s)-4-(2-Fluoro-5-(((3S*,4R*)-4-((4-fluoro-3-(pentafluoro-λ6-sulfaneyl)phenyl)carbamoyl)tetrahydrofuran-3-yl)carbamoyl)-4-methoxyphenoxy)-1-methylcyclohexane-1-carboxylic acid] was tested. Which EC50 did it give?
Answer: > 40 µM

Question: How did the “Test A Sinf” value turn out when `COc1cc(F)c(-c2cccc(C(=O)O)c2)cc1C(=O)N[C@@H]1CCC[C@@H]1C(=O)Nc1cccc(S(=O)(=O)C(F)(F)F)c1` [Example 317, 2′-Fluoro-4′-methoxy-5′-(((1R,2S)-2-((3-((trifluoromethyl)sulfonyl)phenyl)carbamoyl)cyclopentyl)carbamoyl)-[1,1′-biphenyl]-3-carboxylic acid] was run?
Answer: 75%

Question: What about the EC50 of the same molecule?
Answer: 1.2 µM

Question: Which results are given for `COc1cc(F)c(OC2CC(CC(=O)O)C2)cc1C(=O)NC1C2CCC(C2)C1C(=O)Nc1cccc(S(=O)(=O)C(F)(F)F)c1` [Example 474, 2-((1R,3r)-3-(2-Fluoro-4-methoxy-5-(((1R,2R,3S,4S)-3-((3-((trifluoromethyl)sulfonyl)phenyl)carbamoyl)bicyclo[2.2.1]heptan-2-yl)carbamoyl)phenoxy)cyclobutyl)acetic acid]?
Answer: Test A Sinf: 118%; EC50: 0.65 µM

Question: With `COc1cc(F)c(O[C@H]2CC[C@@](C)(C(=O)O)CC2)cc1C(=O)NC1COCC1C(=O)Nc1cccc(S(=O)(=O)C(F)(F)F)c1` (single isomer, unassigned) [Example 560, (1R,4s)-4-(2-Fluoro-4-methoxy-5-(((3S*,4R*)-4-((3-((trifluoromethyl)sulfonyl)phenyl)carbamoyl)tetrahydrofuran-3-yl)carbamoyl)phenoxy)-1-methylcyclohexane-1-carboxylic acid] as the molecule, how does the EC50 read?
Answer: > 40 µM

Question: Which “Test A Sinf” value does the source give for `COCC1(CNC(=O)[C@H]2[C@@H]3CC[C@@H](C3)[C@H]2NC(=O)c2cc(O[C@H]3CC[C@@](C)(C(=O)O)CC3)c(F)cc2OC)CCC1` [Example 594] here?
Answer: 96%

Question: What about the EC50 of the same molecule?
Answer: 0.53 µM

Question: For `COc1cc(F)c(OCc2cccc(C(C)(C)C(=O)O)c2)cc1C(=O)N[C@H]1[C@@H](C(=O)Nc2cccc(S(=O)(=O)C(F)(F)F)c2)[C@@H]2C=C[C@H]1C2` (racemic) [Example 454], which “Test A Sinf” value is on record?
Answer: 76%

Question: `COc1cc(C#N)c(OCCCC(C)(C)C(=O)O)cc1C(=O)N[C@@H]1[C@H]2CC[C@H](C2)[C@@H]1C(=O)NCC1(C)CCC1` [Example 431] was tested. Which “Test A Sinf” value did it give?
Answer: 115%

Question: And the EC50?
Answer: 0.13 µM

Question: With `CCOc1cc(F)c(O[C@H]2CC[C@@](C)(C(=O)O)CC2)cc1C(=O)N[C@@H]1[C@H]2CC[C@H](C2)[C@@H]1C(=O)NC12CC(F)(C1)C2` [Example 384] as the molecule, how does the “Test A Sinf” value read?
Answer: 108%

Question: And the EC50?
Answer: 0.13 µM

Question: `COc1cc(F)c(-c2ccc(C(=O)O)cc2)cc1C(=O)N[C@H]1[C@@H](C(=O)Nc2cc(F)cc(C#N)c2)[C@@H]2C=C[C@H]1C2` (racemic) [Example 310] was tested. Which EC50 did it give?
Answer: > 40 µM

Question: With `COc1cc(F)c(OCc2ccc(C(=O)O)cc2)cc1C(=O)N[C@H]1[C@@H](C(=O)Nc2cccc(S(=O)(=O)C(F)(F)F)c2)[C@@H]2C=C[C@H]1C2` (racemic) [Example 450] as the molecule, how does the “Test A Sinf” value read?
Answer: 107%

Question: What about the EC50 of the same molecule?
Answer: 0.61 µM

Question: What does the source list for `COc1cc(C#N)c(Oc2ccc(C(=O)O)cc2)cc1C(=O)N[C@@H]1[C@H]2CC[C@H](C2)[C@@H]1C(=O)NCC1(C)CCC1` [Example 483]?
Answer: Test A Sinf: 92%; EC50: 0.61 µM

Question: `COc1cc(F)c(O[C@H]2CC[C@@](C)(C(=O)O)CC2)cc1C(=O)N[C@H]1[C@H]2CC[C@H](CC2)[C@H]1C(=O)NCC1(C)CCC1` (racemic) [Example 470, (1R,4s)-4-(2-Fluoro-4-methoxy-5-(((2SR,3RS)-3-(((1-methylcyclobutyl)methyl)carbamoyl)bicyclo[2.2.2]octan-2-yl)carbamoyl)phenoxy)-1-methylcyclohexane-1-carboxylic acid] was tested. Which “Test A Sinf” value did it give?
Answer: 102%

Question: And the EC50?
Answer: 0.017 µM

Question: What does the source list for `CCCNC(=O)[C@H]1[C@@H]2CC[C@@H](C2)[C@H]1NC(=O)c1cc(O[C@H]2CC[C@@](C)(C(=O)O)CC2)c(C#N)cc1OC` [Example 116, (1S,4s)-4-(2-Cyano-4-methoxy-5-(((1S,2R,3S,4R)-3-(propylcarbamoyl)bicyclo[2.2.1]heptan-2-yl)carbamoyl)phenoxy)-1-methylcyclohexane-1-carboxylic acid]?
Answer: Test A Sinf: 106%; EC50: 0.86 µM

Question: How did the “Test A Sinf” value turn out when `COc1cc(F)c(O[C@H]2CC[C@@](C)(C(=O)O)CC2)cc1C(=O)N[C@@H]1COCC[C@@H]1C(=O)Nc1ccc(F)c(S(F)(F)(F)(F)F)c1` (racemic) [Example 349] was run?
Answer: 113%

Question: And the EC50?
Answer: 1.8 µM

Question: With “(1R,4s)-4-(2-Fluoro-5-(((3S*,4S*)-4-((4-fluoro-3-(pentafluoro-λ6-sulfaneyl)phenyl)carbamoyl)tetrahydro-2H-pyran-3-yl)carbamoyl)-4-methoxyphenoxy)-1-methylcyclohexane-1-carboxylic acid [Example 575]” as the molecule, how does the “Test A Sinf” value read?
Answer: 101%
